Laboratory results from patent US12037324B2, “Biarylmethyl heterocycles” (Université de Montréal, priority 2016, dated 2024).

Columns and labels:
Format in all cases: cell-based
hAT1R [1] = molecular target: T1, hAT1R (Homo sapiens, UniProt P30556); assay: BRET Gq biosensor assay, agonist response, HEK293 cells; details: section of the 42nd table directly before the BRET P63 section
T1 sequence (P30556 1-359): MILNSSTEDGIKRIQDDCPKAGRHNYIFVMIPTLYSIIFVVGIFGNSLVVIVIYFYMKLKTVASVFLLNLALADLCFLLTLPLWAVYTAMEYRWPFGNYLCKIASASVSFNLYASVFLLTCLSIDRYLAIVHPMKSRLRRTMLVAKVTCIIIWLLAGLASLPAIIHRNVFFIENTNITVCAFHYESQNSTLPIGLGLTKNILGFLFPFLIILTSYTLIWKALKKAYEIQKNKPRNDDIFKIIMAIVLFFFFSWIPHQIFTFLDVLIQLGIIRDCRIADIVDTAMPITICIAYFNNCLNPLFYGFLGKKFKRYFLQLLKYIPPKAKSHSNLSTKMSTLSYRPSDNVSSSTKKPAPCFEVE
Summary of the method: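 Agonist EC50 derived from a 4-parameter fit of BRET2 ratio (GFP 515 nm/Rluc 410 nm), scaled between unstimulated control and maximal AngII response. Readings taken 5 min after compound addition at room temperature, with 2 μM coelenterazine, in HEK293 cells expressing hAT1R, Gαq-Rluc, Gβ1 and GFP-Gγ1 (transfected two days earlier).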

AGTR1 = molecular target: T2, AGTR1 (Homo sapiens, UniProt P30556); assay: DiscoveRx β-arrestin2 recruitment assay (enzyme complementation, Pathunter CHO-K1 AGTR1 β-arrestin cell line); details: DiscoveRx β-arrestin2 recruitment; for DiscoveRx β-arrestin2 Ymax (%): maximal response
T2 construct: host or cells: Pathunter CHO-K1 AGTR1 β-arrestin cell line (CHO-K1)
T2 sequence (P30556 1-359): T1 sequence (P30556 1-359)
Summary of the method: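 Chemiluminescent enzyme-complementation read-out of β-arrestin2 recruitment to AGTR1 in engineered CHO-K1 cells after 90 min compound exposure at 37° C. Values are 4-parameter logistic EC50s in agonist mode, IC50s in antagonist mode, with efficacy relative to the maximal All response.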

hAT1R [2] = molecular target: T1, hAT1R; assay: BRET β-arrestin2 biosensor assay, higher receptor expression (hAT1R 5 ng/well), HEK293 cells; details: for EC50: High AT1R Expression

| Compound | EC50 (hAT1R [1]) | EC50 (AGTR1) | DiscoveRx β-arrestin2 Ymax (%) (AGTR1) | BRET β-Arrestin2 High AT1R Expression Ymax (%) (hAT1R [2]) | EC50 (hAT1R [2]) |
| --- | --- | --- | --- | --- | --- |
| CCCCc1ncc(C(=O)NCc2cnccn2)n1Cc1ccc(-c2cc(-c3ccccc3)ccc2-c2nn[nH]n2)cc1 [Example 359] | 0.0394 µM | 0.0174 µM | 43.5% | 90.8% | 0.0153 µM |
| CCCCc1ncc(C(=O)NCC(C)(C)COC)n1Cc1ccc(-c2cc(-c3ccccc3)ccc2-c2nn[nH]n2)cc1 [Example 360] | > 100 µM | 0.0292 µM | 37.2% | 75.0% | 0.0351 µM |
| CCCCc1ncc(C(=O)NC(C)(C)COC)n1Cc1ccc(-c2cc(-c3ccccc3)ccc2-c2nn[nH]n2)cc1 [Example 361] | 0.296 µM | 0.0978 µM | 29.3% | 61.3% | 0.128 µM |
| CCCCc1ncc(C(=O)NC2CCCCCC2)n1Cc1ccc(-c2cc(-c3ccccc3)ccc2-c2nn[nH]n2)cc1 [Example 362] | 0.0342 µM | 0.123 µM | 49.8% | 97.0% | 0.0264 µM |
| CCCCc1ncc(C(=O)NCc2cc(C(C)C)no2)n1Cc1ccc(-c2cc(-c3ccccc3)ccc2-c2nn[nH]n2)cc1 [Example 363] | 0.0596 µM | 0.0107 µM | 46.2% | 100.4% | 0.0238 µM |
| CCCCc1ncc(C(=O)NCC(F)F)n1Cc1ccc(-c2cc(-c3ccccc3)ccc2-c2nn[nH]n2)cc1 [Example 364] | 0.119 µM | 0.0232 µM | 30.3% | 79.4% | 0.0505 µM |
| CCCCc1ncc(C(=O)NCC2CC2)n1Cc1ccc(-c2cc(-c3ccccc3)ccc2-c2nn[nH]n2)cc1 [Example 365] | 0.0408 µM | 0.0462 µM | 39.7% | 82.7% | 0.0359 µM |
| CCCCc1ncc(C(=O)NCCC(C)C)n1Cc1ccc(-c2cc(-c3ccccc3)ccc2-c2nn[nH]n2)cc1 [Example 366] | 0.0429 µM | 0.0111 µM | 37.0% | 78.7% | 0.0274 µM |
| CCCCc1ncc(C(=O)NCCOC(C)C)n1Cc1ccc(-c2cc(-c3ccccc3)ccc2-c2nn[nH]n2)cc1 [Example 367] | 0.0591 µM | 0.0057 µM | 35.9% | 63.3% | 0.0176 µM |
| CCCCc1ncc(C(=O)NCC(C)C)n1Cc1ccc(-c2cc(-c3ccccc3)ccc2-c2nn[nH]n2)cc1 [Example 368] | 0.0961 µM | 0.0598 µM | 39.1% | 82.6% | 0.0325 µM |
| CCCCc1ncc(C(=O)N[C@@H](CC)C2CC2)n1Cc1ccc(-c2cc(-c3ccccc3)ccc2-c2nn[nH]n2)cc1 [Example 369] | 0.173 µM | 0.174 µM | 30.9% | 73.8% | 0.0733 µM |
| CCCCc1ncc(C(=O)N2CCC2)n1Cc1ccc(-c2cc(-c3ccccc3)ccc2-c2nn[nH]n2)cc1 [Example 370] | 0.0719 µM | 0.0163 µM | 26.8% | 85.5% | 0.0453 µM |
| CCCCc1ncc(C(=O)NCc2ccccn2)n1Cc1ccc(-c2cc(-c3ccccc3)ccc2-c2nn[nH]n2)cc1 [Example 371] | > 1 µM | 0.0057 µM | 40.8% | 94.4% | 0.011 µM |
| CCCCc1ncc(C(=O)NCCC)n1Cc1ccc(-c2cc(-c3ccccc3)ccc2-c2nn[nH]n2)cc1 [Example 372] | 0.0738 µM | 0.0588 µM | 41.7% | 78.9% | 0.0448 µM |
| CCCCc1ncc(C(=O)NCC(C)(C)C)n1Cc1ccc(-c2cc(-c3ccccc3)ccc2-c2nn[nH]n2)cc1 [Example 373] | 0.734 µM | 0.0142 µM | 29.5% | 71.4% | 0.0385 µM |
| CCCCc1ncc(C(=O)NCCOC)n1Cc1ccc(-c2cc(-c3ccccc3)ccc2-c2nn[nH]n2)cc1 [Example 374] | 0.0162 µM | 0.0105 µM | 44.3% | 94.4% | 0.0134 µM |
| CCCCc1ncc(C(=O)Nc2ccncc2C)n1Cc1ccc(-c2cc(-c3ccccc3)ccc2-c2nn[nH]n2)cc1 [Example 375] | 0.273 µM | 0.0897 µM | 35.8% | 55.7% | 0.0894 µM |
| CCCCc1ncc(C(=O)Nc2ccc(C)nn2)n1Cc1ccc(-c2cc(-c3ccccc3)ccc2-c2nn[nH]n2)cc1 [Example 376] | 0.123 µM | 0.0185 µM | 22.1% | 44.2% | 0.0455 µM |
| CCCCc1ncc(C(=O)NC2CCCC2)n1Cc1ccc(-c2cc(-c3ccccc3)ccc2-c2nn[nH]n2)cc1 [Example 377] | 0.146 µM | 0.0495 µM | 39.0% | 80.9% | 0.0254 µM |
| CCCCc1ncc(C(=O)N2CCCCC2)n1Cc1ccc(-c2cc(-c3ccccc3)ccc2-c2nn[nH]n2)cc1 [Example 378] | 0.688 µM | 0.107 µM | 15.7% | 26.3% | 0.238 µM |
| CCCCc1ncc(C(=O)NCC)n1Cc1ccc(-c2cc(-c3ccccc3)ccc2-c2nn[nH]n2)cc1 [Example 379] | 0.106 µM | 0.0212 µM | 30.2% | 72.7% | 0.0563 µM |
| CCCCc1ncc(C(=O)NC2CCC2)n1Cc1ccc(-c2cc(-c3ccccc3)ccc2-c2nn[nH]n2)cc1 [Example 380] | 0.104 µM | 0.0592 µM | 43.1% | 76.0% | 0.035 µM |
| CCCCc1nc(Cl)c(C(=O)N(C)C)n1Cc1ccc(-c2cc(-c3ccccc3)ccc2-c2nn[nH]n2)cc1 [Example 381, 1-((6′-(2H-tetrazol-5-yl)-[1,1′:3′,1″-terphenyl]-4-yl)methyl)-2-butyl-4-chloro-N,N-dimethyl-1H-imidazole-5-carboxamide] | 2.11 µM | 0.344 µM | 37.4% | 73.9% | 0.828 µM |
| CCCCc1ncc(C(=O)NC)n1Cc1ccc(-c2cc(-c3ccccc3)ccc2-c2nn[nH]n2)cc1 [Example 382] | > 100 µM | 0.0132 µM | 27.6% | 67.5% | 0.0471 µM |
| CCCCc1ncc(C(=O)N(C)C)n1Cc1ccc(-c2cc(-c3ccccc3)ccc2-c2nn[nH]n2)cc1 [Example 383, 1-((6′-(2H-tetrazol-5-yl)-[1,1′:3′,1″-terphenyl]-4-yl)methyl)-2-butyl-N,N-dimethyl-1H-imidazole-5-carboxamide] | 7.74 µM | 0.0704 µM | 22.8% | 66.3% | 0.309 µM |
| CCCCc1nc(Cl)c(C(=O)O)n1Cc1ccc(-c2cc(-c3cncc(OC)c3)ccc2-c2nn[nH]n2)cc1 [Example 385] | 1.11 µM | 0.0314 µM | 35.4% | 87.0% | 0.0571 µM |
| CCCCc1nc(Cl)c(C(=O)O)n1Cc1ccc(-c2cc(-c3cnn(C4CC4)c3)ccc2-c2nn[nH]n2)cc1 [Example 386] | 59.1 µM | 0.0084 µM | 27.3% | 66.7% | 0.0452 µM |
| CCCCc1nc(Cl)c(C(=O)O)n1Cc1ccc(-c2cc(-c3cnn(C(F)F)c3)ccc2-c2nn[nH]n2)cc1 [Example 387] | 3.42 µM | 0.0166 µM | 32.8% | 81.9% | 0.0182 µM |
| CCCCc1nc(Cl)c(C(=O)O)n1Cc1ccc(-c2cc(-c3cnn(C)c3)ccc2-c2nn[nH]n2)cc1 [Example 389] | 2.02 µM | 0.0918 µM | 26.7% | 35.3% | 0.189 µM |
